Results on four compounds are retold here after PMC7827406, “Structure–Activity Relationship (SAR) Study of Spautin-1 to Entail the Discovery of Novel NEK4 Inhibitors” (International Journal of Molecular Sciences, 2021).

Read-outs that look alike come from different tables or passages of the source.

Holding throughout (test): biochemical
What all share (parameters): Eurofins KinaseProfiler full panel at Km ATP, residual kinase activity (%) relative to DMSO

Assay [1] addresses LRRK2(h) (Homo sapiens, UniProt Q5S007). Summed up: (§1)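 Compounds screened at 10 µM in radiometric kinase activity assays at Km ATP, reported as remaining kinase activity (%). A KINOMEscan competition-binding screen at 10 µM measured DNA-tagged kinase retained on immobilized active-site ligand by qPCR.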
In assay [2] the target is Syk(h) (Homo sapiens, UniProt P43405). Summed up:
as §1

Assay [3] deals with Cdc7/cyclinB1(h) (Homo sapiens, UniProt O00311). Summed up: as §1
Assay [4] has as its target Lyn(m) (Mus musculus, UniProt P25911). The method in brief: as §1
Assay [5] addresses T1, Itk(h) (Homo sapiens, UniProt Q08881).
T1 sequence (Q08881 1-620): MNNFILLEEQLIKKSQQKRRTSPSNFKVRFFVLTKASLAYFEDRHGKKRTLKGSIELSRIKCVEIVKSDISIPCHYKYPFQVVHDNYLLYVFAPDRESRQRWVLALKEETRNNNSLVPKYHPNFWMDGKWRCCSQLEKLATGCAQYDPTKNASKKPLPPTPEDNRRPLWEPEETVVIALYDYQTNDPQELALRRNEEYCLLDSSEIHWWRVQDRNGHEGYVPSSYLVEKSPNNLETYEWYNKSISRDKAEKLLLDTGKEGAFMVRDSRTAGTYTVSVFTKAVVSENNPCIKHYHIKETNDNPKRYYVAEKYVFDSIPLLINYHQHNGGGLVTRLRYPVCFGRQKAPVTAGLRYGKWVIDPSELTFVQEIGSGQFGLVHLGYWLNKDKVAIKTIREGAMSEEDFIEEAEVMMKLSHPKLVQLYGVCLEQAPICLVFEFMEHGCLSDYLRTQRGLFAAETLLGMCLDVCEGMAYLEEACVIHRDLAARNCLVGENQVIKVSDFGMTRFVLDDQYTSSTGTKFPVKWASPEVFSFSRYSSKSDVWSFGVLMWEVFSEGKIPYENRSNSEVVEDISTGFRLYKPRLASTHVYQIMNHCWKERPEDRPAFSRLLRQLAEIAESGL
Summed up:
as §1

Assay [6] deals with T2, PDK1(h) (Homo sapiens, UniProt O15530).
T2 construct: gene PDPK1
T2 sequence (O15530 1-556): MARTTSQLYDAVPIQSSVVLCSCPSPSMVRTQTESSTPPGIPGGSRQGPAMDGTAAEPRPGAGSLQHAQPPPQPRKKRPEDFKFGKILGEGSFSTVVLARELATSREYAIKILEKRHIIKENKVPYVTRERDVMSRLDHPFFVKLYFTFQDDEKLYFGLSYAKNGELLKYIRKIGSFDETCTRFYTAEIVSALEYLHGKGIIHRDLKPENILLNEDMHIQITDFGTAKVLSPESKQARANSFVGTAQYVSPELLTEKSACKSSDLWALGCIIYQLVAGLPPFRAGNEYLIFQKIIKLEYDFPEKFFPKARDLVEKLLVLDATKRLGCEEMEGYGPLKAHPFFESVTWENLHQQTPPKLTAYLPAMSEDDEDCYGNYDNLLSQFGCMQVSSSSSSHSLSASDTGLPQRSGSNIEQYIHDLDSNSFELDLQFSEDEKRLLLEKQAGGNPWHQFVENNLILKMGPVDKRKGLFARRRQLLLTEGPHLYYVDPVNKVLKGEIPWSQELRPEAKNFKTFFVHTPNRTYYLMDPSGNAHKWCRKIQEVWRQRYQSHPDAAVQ
Summed up:
as §1

Assay [7] has as its target T3, MST1(h) (Homo sapiens, UniProt Q13043).
T3 construct: gene STK4
T3 sequence (Q13043 1-487): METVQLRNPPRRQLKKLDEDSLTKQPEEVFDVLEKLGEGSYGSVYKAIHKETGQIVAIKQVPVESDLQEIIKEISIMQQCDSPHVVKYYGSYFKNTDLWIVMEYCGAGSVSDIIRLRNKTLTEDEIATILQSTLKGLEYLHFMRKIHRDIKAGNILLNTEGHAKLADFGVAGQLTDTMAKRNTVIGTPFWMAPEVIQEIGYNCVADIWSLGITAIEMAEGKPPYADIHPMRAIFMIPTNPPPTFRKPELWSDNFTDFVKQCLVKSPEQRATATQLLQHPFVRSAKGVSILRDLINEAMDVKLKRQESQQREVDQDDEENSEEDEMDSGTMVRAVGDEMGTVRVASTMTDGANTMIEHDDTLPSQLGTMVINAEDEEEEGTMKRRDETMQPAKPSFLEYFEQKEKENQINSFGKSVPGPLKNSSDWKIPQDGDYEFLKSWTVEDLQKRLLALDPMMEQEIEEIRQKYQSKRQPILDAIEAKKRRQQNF
Summed up: as §1

Assay [8] addresses FGFR4(h) (Homo sapiens, UniProt P22455). The method in brief: as §1
Assay [9] deals with T4, Tie2(R849W)(h) (Homo sapiens, UniProt Q02763, R849W).
T4 construct: gene TEK
The method in brief: as §1

Where [10] appears, read: read-out: Residual activity (%) Spautin-1 5aa.
Setting [11] is: read-out: Residual activity (%) 5as.
Setting [12] is: read-out: Residual activity (%) 5at.
The mark [13] stands for this setting: read-out: Residual activity (%) 5ay.

T4 sequence (Q02763 whole entry R849W): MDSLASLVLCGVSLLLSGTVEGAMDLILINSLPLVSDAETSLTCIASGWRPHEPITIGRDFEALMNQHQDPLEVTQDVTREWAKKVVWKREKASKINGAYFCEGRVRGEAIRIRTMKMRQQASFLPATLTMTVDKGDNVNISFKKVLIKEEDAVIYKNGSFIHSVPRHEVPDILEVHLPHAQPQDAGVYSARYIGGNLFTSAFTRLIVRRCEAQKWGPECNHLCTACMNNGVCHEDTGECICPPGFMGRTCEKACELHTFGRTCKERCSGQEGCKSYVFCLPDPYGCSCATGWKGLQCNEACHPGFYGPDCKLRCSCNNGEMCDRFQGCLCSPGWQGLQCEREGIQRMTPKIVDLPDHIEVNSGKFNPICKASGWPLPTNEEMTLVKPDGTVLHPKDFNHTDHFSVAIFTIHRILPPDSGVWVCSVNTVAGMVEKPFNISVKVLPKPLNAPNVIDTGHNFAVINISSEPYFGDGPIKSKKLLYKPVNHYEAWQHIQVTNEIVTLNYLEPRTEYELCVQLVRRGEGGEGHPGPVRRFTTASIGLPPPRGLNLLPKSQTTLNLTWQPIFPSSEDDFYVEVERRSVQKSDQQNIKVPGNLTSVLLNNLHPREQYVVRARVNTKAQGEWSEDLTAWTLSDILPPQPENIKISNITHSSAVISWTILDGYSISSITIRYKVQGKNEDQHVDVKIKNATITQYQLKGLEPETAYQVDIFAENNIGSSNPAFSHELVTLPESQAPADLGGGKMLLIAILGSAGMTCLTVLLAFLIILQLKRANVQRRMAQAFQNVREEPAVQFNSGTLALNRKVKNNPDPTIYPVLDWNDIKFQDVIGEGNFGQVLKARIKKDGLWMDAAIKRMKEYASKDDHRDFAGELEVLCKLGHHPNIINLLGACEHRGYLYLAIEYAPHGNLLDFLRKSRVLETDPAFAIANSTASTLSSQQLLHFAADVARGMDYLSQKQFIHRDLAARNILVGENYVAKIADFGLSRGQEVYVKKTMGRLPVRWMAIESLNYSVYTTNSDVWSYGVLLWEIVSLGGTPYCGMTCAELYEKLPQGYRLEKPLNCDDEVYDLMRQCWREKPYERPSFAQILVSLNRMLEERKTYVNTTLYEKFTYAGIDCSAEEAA
Sequence of FGFR4(h) (P22455 whole entry): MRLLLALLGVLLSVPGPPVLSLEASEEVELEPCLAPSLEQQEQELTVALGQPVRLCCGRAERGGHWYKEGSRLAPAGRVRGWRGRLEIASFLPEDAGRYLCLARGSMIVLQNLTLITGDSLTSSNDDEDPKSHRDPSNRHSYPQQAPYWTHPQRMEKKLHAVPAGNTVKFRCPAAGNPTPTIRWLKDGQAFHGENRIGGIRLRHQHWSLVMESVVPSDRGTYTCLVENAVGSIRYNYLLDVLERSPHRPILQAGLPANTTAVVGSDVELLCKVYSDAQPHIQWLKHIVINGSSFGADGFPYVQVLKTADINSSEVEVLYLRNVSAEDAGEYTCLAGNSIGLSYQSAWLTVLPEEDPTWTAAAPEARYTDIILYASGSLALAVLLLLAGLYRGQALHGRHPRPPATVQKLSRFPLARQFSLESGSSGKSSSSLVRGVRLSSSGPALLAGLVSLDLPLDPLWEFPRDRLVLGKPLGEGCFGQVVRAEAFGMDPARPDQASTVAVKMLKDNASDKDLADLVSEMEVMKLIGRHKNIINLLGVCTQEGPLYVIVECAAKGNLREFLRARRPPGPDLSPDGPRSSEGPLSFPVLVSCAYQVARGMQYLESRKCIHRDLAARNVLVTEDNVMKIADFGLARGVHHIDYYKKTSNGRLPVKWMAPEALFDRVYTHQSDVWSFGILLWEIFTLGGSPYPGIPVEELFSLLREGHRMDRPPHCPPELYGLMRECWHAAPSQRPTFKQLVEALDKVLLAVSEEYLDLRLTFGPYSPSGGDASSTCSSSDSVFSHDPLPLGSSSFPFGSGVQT
Sequence of LRRK2(h) (Q5S007 whole entry): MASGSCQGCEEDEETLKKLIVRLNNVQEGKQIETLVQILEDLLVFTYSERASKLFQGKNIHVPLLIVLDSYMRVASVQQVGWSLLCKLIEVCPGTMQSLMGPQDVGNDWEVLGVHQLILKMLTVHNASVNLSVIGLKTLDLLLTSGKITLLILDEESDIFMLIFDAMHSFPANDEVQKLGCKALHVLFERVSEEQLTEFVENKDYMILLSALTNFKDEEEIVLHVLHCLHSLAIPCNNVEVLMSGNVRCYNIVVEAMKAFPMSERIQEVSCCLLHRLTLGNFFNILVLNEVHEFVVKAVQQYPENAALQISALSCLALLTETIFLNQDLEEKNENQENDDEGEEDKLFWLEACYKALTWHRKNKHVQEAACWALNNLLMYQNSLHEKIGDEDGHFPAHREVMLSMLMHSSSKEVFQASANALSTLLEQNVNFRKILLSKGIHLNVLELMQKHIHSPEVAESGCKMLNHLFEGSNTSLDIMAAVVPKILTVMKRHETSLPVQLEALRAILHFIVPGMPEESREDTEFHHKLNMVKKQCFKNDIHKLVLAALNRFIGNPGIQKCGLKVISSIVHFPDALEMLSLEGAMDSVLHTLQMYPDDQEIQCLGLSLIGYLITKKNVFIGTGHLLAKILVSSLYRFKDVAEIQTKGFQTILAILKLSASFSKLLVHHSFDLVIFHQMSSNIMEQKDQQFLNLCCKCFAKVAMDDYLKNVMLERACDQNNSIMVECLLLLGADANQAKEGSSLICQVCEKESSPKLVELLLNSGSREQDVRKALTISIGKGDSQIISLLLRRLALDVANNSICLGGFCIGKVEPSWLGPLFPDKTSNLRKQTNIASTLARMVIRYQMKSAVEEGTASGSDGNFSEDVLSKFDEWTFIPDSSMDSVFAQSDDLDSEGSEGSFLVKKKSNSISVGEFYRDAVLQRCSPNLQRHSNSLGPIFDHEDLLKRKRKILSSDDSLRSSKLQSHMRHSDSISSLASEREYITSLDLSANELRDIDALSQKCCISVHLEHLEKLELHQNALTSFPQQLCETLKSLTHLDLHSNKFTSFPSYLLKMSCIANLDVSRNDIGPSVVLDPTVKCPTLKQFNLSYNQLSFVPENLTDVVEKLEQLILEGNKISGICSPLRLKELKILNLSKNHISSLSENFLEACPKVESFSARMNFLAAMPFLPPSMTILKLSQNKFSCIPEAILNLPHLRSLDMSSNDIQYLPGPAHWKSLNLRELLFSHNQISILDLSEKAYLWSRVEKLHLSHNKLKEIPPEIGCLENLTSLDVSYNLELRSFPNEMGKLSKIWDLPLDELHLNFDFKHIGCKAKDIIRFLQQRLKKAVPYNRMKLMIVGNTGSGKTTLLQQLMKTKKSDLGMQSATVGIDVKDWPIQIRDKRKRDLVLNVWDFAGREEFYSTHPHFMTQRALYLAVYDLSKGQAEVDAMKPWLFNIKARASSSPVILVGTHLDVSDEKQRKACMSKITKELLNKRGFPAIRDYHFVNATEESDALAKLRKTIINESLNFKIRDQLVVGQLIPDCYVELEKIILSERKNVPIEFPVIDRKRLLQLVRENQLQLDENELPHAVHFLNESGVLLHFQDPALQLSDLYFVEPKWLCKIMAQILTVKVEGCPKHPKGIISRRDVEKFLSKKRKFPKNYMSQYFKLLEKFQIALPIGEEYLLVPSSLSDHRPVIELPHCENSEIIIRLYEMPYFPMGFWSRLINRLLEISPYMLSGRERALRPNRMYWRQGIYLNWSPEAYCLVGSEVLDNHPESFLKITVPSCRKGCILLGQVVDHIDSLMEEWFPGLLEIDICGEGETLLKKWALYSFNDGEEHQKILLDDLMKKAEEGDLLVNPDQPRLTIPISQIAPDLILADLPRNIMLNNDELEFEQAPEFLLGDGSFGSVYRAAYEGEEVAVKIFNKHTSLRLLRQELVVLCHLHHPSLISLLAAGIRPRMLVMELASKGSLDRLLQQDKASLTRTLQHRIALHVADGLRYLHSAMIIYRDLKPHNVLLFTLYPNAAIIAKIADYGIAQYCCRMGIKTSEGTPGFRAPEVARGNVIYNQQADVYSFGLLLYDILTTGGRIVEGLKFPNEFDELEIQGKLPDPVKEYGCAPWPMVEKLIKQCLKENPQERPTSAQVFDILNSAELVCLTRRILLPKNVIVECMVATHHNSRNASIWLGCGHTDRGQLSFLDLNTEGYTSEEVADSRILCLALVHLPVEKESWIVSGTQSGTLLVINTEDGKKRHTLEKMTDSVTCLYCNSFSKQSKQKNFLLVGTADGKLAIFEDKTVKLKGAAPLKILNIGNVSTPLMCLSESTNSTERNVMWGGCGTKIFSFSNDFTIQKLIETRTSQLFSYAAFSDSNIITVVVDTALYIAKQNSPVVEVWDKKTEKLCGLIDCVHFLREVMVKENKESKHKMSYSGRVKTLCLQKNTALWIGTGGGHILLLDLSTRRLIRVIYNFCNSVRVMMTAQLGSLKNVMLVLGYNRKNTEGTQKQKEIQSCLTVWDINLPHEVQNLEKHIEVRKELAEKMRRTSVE
Sequence of Lyn(m) (P25911 whole entry): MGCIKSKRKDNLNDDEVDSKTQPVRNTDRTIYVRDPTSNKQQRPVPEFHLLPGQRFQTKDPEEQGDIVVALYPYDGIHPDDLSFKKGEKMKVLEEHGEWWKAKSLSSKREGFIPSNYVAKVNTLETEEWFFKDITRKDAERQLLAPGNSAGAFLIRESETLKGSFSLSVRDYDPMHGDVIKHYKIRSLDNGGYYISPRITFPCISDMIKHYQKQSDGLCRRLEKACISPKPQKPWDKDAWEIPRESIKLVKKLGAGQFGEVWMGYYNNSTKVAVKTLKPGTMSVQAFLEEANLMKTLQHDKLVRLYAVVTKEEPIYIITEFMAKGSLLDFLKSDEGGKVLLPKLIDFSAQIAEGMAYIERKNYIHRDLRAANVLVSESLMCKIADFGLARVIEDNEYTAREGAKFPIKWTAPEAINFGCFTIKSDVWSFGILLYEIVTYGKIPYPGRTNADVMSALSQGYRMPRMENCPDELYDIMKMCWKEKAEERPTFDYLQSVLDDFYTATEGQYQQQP

Consider `Fc1ccc(CNc2ncnc3ccc(F)cc23)cc1` [5aa, 6-Fluoro-N-(4-fluorobenzyl)-4-Quinazolinamine], for which the remaining activity at 10 µM was 91% in assay [1] (setting [10]); 113% in assay [2] (setting [10]); 92% in [3] (setting [10]); 81% in assay [4] (setting [10]); 117% in assay [5] (setting [10]); 102% in assay [6] (setting [10]). The remaining activity at 10 µM in [7] (setting [10]) was determined as 91%; in assay [8] (setting [10]) it was 99%; in assay [9] (setting [10]), 91%.

For `Fc1ccc(CCNc2ncnc3ccc(F)cc23)cc1` [5as, 6-Fluoro-N-[2-(4-Fluorophenyl)Ethyl]-4-Quinazolinamine], the remaining activity at 10 µM in assay [1] (setting [11]) was 91%; in [2] (setting [11]), 84%; in assay [3] (setting [11]) it was 79%; in assay [4] (setting [11]), 91%; in assay [5] (setting [11]), 97%; in assay [6] (setting [11]), 88%. The remaining activity at 10 µM was 78% in [7] (setting [11]), 93% in [8] (setting [11]) and 98% in [9] (setting [11]).

As for `Fc1ccc2ncnc(NCCc3ccc(Cl)cc3)c2c1` [5at, N-[2-(4-Chlorophenyl)Ethyl]-6-Fluoro-4-Quinazolinamine], the remaining activity at 10 µM is 101% in [1] (setting [12]); 92% in assay [2] (setting [12]); 76% in assay [3] (setting [12]); 77% in assay [4] (setting [12]); 103% in assay [5] (setting [12]); 84% in assay [6] (setting [12]). Moreover, the remaining activity at 10 µM was 97% in assay [7] (setting [12]), 96% in assay [8] (setting [12]) and 90% in assay [9] (setting [12]).

Consider `COc1ccc2ncnc(Nc3cccc(F)c3)c2c1` [5ay, N-(3-Fluorophenyl)-6-Methoxy-4-Quinazolinamine], for which the remaining activity at 10 µM stood at 44% in assay [1] (setting [13]); 110% in assay [2] (setting [13]); 73% in assay [3] (setting [13]); 93% in [4] (setting [13]); 88% in [5] (setting [13]); 90% in assay [6] (setting [13]). The remaining activity at 10 µM turned out to be 70% in assay [7] (setting [13]), 98% in [8] (setting [13]) and 110% in [9] (setting [13]).
